Holding throughout (assay type): biochemical
One assay addresses T1, human cathepsin B (Homo sapiens, UniProt P07858).
T1 construct: purchased CN Biosciences
The assay can be described thus: Cathepsin B peptidase activity assay (Ki). To be noted: read-out: Ki, inhibitors of cathepsin B. The method, then:
Unless otherwise stated, all general chemicals and biochemicals were purchased from either the Sigma Chemical Company, Poole, Dorset, U.K or from Fisher Scientific UK, Loughborough, Leicestershire, U.K. Absorbance assays were carried out in flat-bottomed 96-well plates (Spectra; Greiner Bio-One Ltd., Stonehouse, Gloucestershire, U.K.) using a SpectraMax PLUS384 plate reader (Molecular Devices, Crawley, U.K.). […] Fluorescence assays were monitored using a SpectraMax Gemini fluorescence plate reader (Molecular Devices). For substrates employing either a 7-amino-4-methylcoumarin (AMC) or a 7-amino-4-trifluoromethylcoumarin (AFC) fluorophore, assays were monitored at an excitation wavelength of 365 nm and an emission wavelength of 450 nm and the fluorescence plate reader calibrated with AMC. For substrates employing a 3-amino-benzoyl (Abz) fluorophore, assays were monitored at an excitation wavelength of 310 nm and an emission wavelength of 445 nm; the fluorescence plate reader calibrated with 3-amino-benzamide (Fluka). Unless otherwise indicated, all the peptidase substrates were purchased from Bachem UK, St Helens, Merseyside, UK. […] Hydroxyethylpiperazine ethanesulfonate (HEPES), tris-hydroxylmethyl aminomethane (tris) base, bis-tris-propane and all the biological detergents (e.g. CHAPS, zwittergents, etc.) were purchased from CN Biosciences UK, Beeston, Nottinghamshire, U.K. Glycerol was purchased from Amersham Pharmacia Biotech, Little Chalfont, Buckinghamshire, U.K. Stock solutions of substrate or inhibitor were made up to 10 mM in 100% dimethylsulfoxide (DMSO) (Rathburns, Glasgow, U.K.) and diluted as appropriately required. In all cases the DMSO concentration in the assays was maintained at less than 1% (vol./vol.).
Enzyme was added as required to initiate the reaction and the activity, as judged by the change in fluorescence upon conversion of substrate to product, was monitored over time. All assays were carried out at 25±1° C.
Bovine cathepsin S, human cathepsin L, human cathepsin H and human cathepsin B were obtained from CN Biosciences. Recombinant human cathepsin S, human cathepsin K and human cathepsin X were obtained from Dr. Boris Turk (Josef Stefan Institute, Ljubljana, Slovenia). Unless otherwise stated, all peptidase activity assays were carried out in 10 mM bis-tris-propane (BTP), pH 6.5 containing 1 mM EDTA, 5 mM 2-mercaptoethanol and 1 mM CaCl2.
The apparent inhibition constant (Ki) for each compound was determined on the basis that inhibition was reversible and occurred by a pure-competitive mechanism. […] [formula]
[formula] Ki^app=Ki(1+[So]/KM^app) (4)
Curves were fitted by non-linear regression analysis (Prism) using a fixed value for the enzyme concentration.

A further assay addresses Wild-type cruzipain (Trypanosoma cruzi, UniProt P25779). The assay can be described thus: Trypanosoma cruzi cruzipain peptidase activity assay (Ki). To be noted: read-out: Ki, inhibitors of cruzain and cruzipains. An outline of the steps: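 Native cruzipain from T. cruzi Dm28 epimastigotes, 2.5 nM, in 100 mM sodium phosphate pH 6.75 with 1 mM EDTA and 10 mM L-cysteine, 25 °C, DMSO <1%. Rates taken from continuous fluorogenic substrate read; Ki by regression assuming reversible pure-competitive inhibition.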

The next assay addresses T2, human cathepsin L (Homo sapiens, UniProt P07711).
T2 construct: purchased CN Biosciences
The assay can be described thus: Cathepsin L peptidase activity assay (Ki). To be noted: read-out: Ki, inhibitors of cathepsin L. The protocol: Unless otherwise stated, all general chemicals and biochemicals were purchased from either the Sigma Chemical Company, Poole, Dorset, U.K or from Fisher Scientific UK, Loughborough, Leicestershire, U.K. Absorbance assays were carried out in flat-bottomed 96-well plates (Spectra; Greiner Bio-One Ltd., Stonehouse, Gloucestershire, U.K.) using a SpectraMax PLUS384 plate reader (Molecular Devices, Crawley, U.K.). Fluorescence high throughput assays were carried out in either 384-well microtitre plates (Corning Costar 3705 plates, Fisher Scientific) or 96-well ‘U’ bottomed Microfluor W1 microtitre plates (Thermo Labsystems, Ashford, Middlesex, U.K.). Fluorescence assays were monitored using a SpectraMax Gemini fluorescence plate reader (Molecular Devices). For substrates employing either a 7-amino-4-methylcoumarin (AMC) or a 7-amino-4-trifluoromethylcoumarin (AFC) fluorophore, assays were monitored at an excitation wavelength of 365 nm and an emission wavelength of 450 nm and the fluorescence plate reader calibrated with AMC. For substrates employing a 3-amino-benzoyl (Abz) fluorophore, assays were monitored at an excitation wavelength of 310 nm and an emission wavelength of 445 nm; the fluorescence plate reader calibrated with 3-amino-benzamide (Fluka). Unless otherwise indicated, all the peptidase substrates were purchased from Bachem UK, St Helens, Merseyside, UK. Substrates utilizing fluorescence resonance energy transfer methodology (i.e. FRET-based substrates) were synthesized at Incenta Limited using published methods (Atherton & Sheppard, Solid Phase Peptide Synthesis, IRL Press, Oxford, U.K, 1989) and employed Abz (2-aminobenzoyl) as the fluorescence donor and 3-nitro-tyrosine [Tyr(NO2)] as the fluorescence quencher (Meldal, M. and Breddam, K., Anal. Biochem, 195, 141-147, 1991). Hydroxyethylpiperazine ethanesulfonate (HEPES), tris-hydroxylmethyl aminomethane (tris) base, bis-tris-propane and all the biological detergents (e.g. CHAPS, zwittergents, etc.) were purchased from CN Biosciences UK, Beeston, Nottinghamshire, U.K. Glycerol was purchased from Amersham Pharmacia Biotech, Little Chalfont, Buckinghamshire, U.K. Stock solutions of substrate or inhibitor were made up to 10 mM in 100% dimethylsulfoxide (DMSO) (Rathburns, Glasgow, U.K.) and diluted as appropriately required. In all cases the DMSO concentration in the assays was maintained at less than 1% (vol./vol.).
Assay protocols were based on literature precedent (Table 4; Barrett, A. J., Rawlings, N. D. and Woessner, J. F., 1998, Handbook of Proteolytic Enzymes, Academic Press, London and references therein) and modified as required to suit local assay protocols. Enzyme was added as required to initiate the reaction and the activity, as judged by the change in fluorescence upon conversion of substrate to product, was monitored over time. All assays were carried out at 25±1° C.
Bovine cathepsin S, human cathepsin L, human cathepsin H and human cathepsin B were obtained from CN Biosciences. Recombinant human cathepsin S, human cathepsin K and human cathepsin X were obtained from Dr. Boris Turk (Josef Stefan Institute, Ljubljana, Slovenia). Unless otherwise stated, all peptidase activity assays were carried out in 10 mM bis-tris-propane (BTP), pH 6.5 containing 1 mM EDTA, 5 mM 2-mercaptoethanol and 1 mM CaCl2. Human cathepsin H activity assays were carried out in 10 mM BTP pH 6.5, 142 mM NaCl2, 1 mM CaCl2, 1 mM EDTA, 1 mM DTT, 0.035 mM Zwittergent 3-16. Human cathepsin K assays were carried out in 100 mM sodium acetate; pH 5.5 containing 20 mM L-cysteine and 1 mM EDTA (Bossard, M. J., et. al., J. Biol. Chem., 21, 12517-12524, 1996). Human cathepsin X assays were carried out in 100 mM sodium acetate; pH 5.5 containing 20 mM L-cysteine; 0.05% (w/v) Brij 35 and 1 mM EDTA (Santamaria, I., et. al., J. Biol. Chem., 273, 16816-16823, 1998; Klemencic, J, et al., Eur. J. Biochem., 267, 5404-5412, 2000). […]

The target of the next assay is T3, CPB2.8ΔCTE (Leishmania mexicana, UniProt P36400).
T3 construct: Wild-type recombinant CPB without the C-terminal extention (i.e. CPB2.8ΔCTE); Dr. Jeremy Mottram (Wellcome Centre for Molecular Parasitology, University of Glasgow)
Put plainly: Leishmania mexicana cysteine protease B (CPB) peptidase activity assay (Ki). The following applies: Ki, inhibitors of Leismania mexicana CPB protease. The gist of the method:
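Apparent Ki was derived by regression of activity against inhibitor concentration, assuming pure-competitive reversible binding. Reaction: 0.25 nM CPB lacking the C-terminal extension, pH 5.5 acetate buffer (1 mM EDTA, 200 mM NaCl, 10 mM DTT), 25 °C, followed by continuous substrate fluorescence.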

Sequence of Wild-type cruzipain (P25779 whole entry): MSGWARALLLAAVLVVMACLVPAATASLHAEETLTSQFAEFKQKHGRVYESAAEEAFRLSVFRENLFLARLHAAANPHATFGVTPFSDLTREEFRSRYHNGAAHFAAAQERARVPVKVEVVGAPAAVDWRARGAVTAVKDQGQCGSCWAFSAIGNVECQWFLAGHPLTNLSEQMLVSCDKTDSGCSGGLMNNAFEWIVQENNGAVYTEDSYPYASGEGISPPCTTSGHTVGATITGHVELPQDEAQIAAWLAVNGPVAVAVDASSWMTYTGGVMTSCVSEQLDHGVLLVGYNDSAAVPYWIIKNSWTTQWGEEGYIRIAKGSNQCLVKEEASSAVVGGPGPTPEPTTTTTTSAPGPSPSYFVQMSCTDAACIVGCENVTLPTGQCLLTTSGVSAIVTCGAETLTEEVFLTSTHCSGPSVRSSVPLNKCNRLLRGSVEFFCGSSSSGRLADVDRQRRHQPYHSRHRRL
T3 sequence (P36400 126-343, stated change not applied): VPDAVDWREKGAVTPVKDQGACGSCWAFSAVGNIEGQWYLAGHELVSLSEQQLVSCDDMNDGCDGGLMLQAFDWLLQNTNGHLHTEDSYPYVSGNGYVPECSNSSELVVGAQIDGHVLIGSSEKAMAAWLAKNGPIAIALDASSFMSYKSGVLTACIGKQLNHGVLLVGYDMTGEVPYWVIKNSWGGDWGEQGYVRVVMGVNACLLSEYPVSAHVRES
T2 sequence (P07711 114-333): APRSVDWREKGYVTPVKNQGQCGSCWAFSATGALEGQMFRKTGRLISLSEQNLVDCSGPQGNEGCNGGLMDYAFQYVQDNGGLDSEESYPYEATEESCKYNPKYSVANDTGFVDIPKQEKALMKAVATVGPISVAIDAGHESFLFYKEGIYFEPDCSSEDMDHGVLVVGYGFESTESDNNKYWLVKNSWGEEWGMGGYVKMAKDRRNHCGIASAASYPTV

In the case of `CC(C)C[C@H](NC(=O)c1ccc(Oc2ccccc2)cc1)C(=O)N1CC[C@@H]2[C@H]1C(=O)CN2C(=O)c1ccccc1S(C)(=O)=O` [Example 40, (3aR,6aS)-N-{(1S)-1-[4-(2-Methanesulfonyl-benzoyl)-6-oxo-hexahydro-pyrrolo[3,2-b]pyrrole-1-carbonyl]-3-methyl-butyl}-4-phenoxy-benzamide], on human cathepsin B, the Ki was below 5 µM.
On the same count and under the same terms, the same measure for `CC(C)C[C@H](NC(=O)c1ccc(Oc2ccccc2)cc1)C(=O)N1CC[C@@H]2[C@H]1C(=O)CN2C(=O)c1cccc(S(C)(=O)=O)c1` [Example 41, (3aR,6aS)-N-{(1S)-1-[4-(3-Methanesulfonyl-benzoyl)-6-oxo-hexahydro-pyrrolo[3,2-b]pyrrole-1-carbonyl]-3-methyl-butyl}-4-phenoxy-benzamide]: below 5 µM.
For `Cc1cccc(C(=O)N2CC(=O)[C@@H]3[C@H]2CCN3C(=O)[C@H](CC(C)C)NC(=O)c2ccc(N(C)C)cc2)c1` [Example 54, (3aR,6aS)-4-Dimethylamino-N-{(1S)-3-methyl-1-[4-(3-methyl-benzoyl)-6-oxo-hexahydro-pyrrolo[3,2-b]pyrrole-1-carbonyl]-butyl}-benzamide], the Ki at Wild-type cruzipain and at human cathepsin B was below 5 µM each time.
In the case of `CC(C)C[C@H](NC(=O)c1cccc(CN)c1)C(=O)N1CC[C@@H]2[C@H]1C(=O)CN2C(=O)[C@@H](N)CC(C)C` [Example 246, (3aR,6aS)-3-Aminomethyl-N-{(1S)-1-[4-((2S)-2-amino-4-methyl-pentanoyl)-6-oxo-hexahydro-pyrrolo[3,2-b]pyrrole-1-carbonyl)-3-methyl-butyl}-benzamide], the Ki at Wild-type cruzipain, at human cathepsin L and at CPB2.8ΔCTE was below 5 µM throughout.
On to `O=C(N[C@@H](CSCc1ccccc1)C(=O)N1CC[C@@H]2[C@H]1C(=O)CN2C(=O)c1ccccc1)c1cc2ccccc2s1` [Example 252, (3aR,6aS)-Benzo[b]thiophene-2-carboxylic acid [(1R)-2-(4-benzoyl-6-oxo-hexahydro-pyrrolo[3,2-b]pyrrol-1-yl)-1-benzylsulfanylmethyl-2-oxo-ethyl]-amide], for which the Ki at human cathepsin B is below 5 µM.
On the same count and under the same terms, the same measure for `O=C(N[C@@H](CSCc1ccccc1)C(=O)N1CC[C@@H]2[C@H]1C(=O)CN2C(=O)c1ccccc1)c1csc2ccccc12` [Example 253, (3aR,6aS)-Benzo[b]thiophene-3-carboxylic acid [(1R)-2-(4-benzoyl-6-oxo-hexahydro-pyrrolo[3,2-b]pyrrole-1-yl)-1-benzylsulfanylmethyl-2-oxo-ethyl]-amide]: below 5 µM; for `O=C(N[C@@H](CSCc1ccccc1)C(=O)N1CC[C@@H]2[C@H]1C(=O)CN2C(=O)c1cccc([N+](=O)[O-])c1)c1ccsc1` [Example 264, (3aR,6aS)-Thiophene-3-carboxylic acid {(1R)-1-benzylsulfanylmethyl-2-[4-(3-nitro-benzoyl)-6-oxo-hexahydro-pyrrolo[3,2-b]pyrrole-1-yl]-2-oxo-ethyl}-amide]: below 5 µM.
`O=C(N[C@@H](CSCc1ccccc1)C(=O)N1CC[C@@H]2[C@H]1C(=O)CN2C(=O)C12CC3CC(CC1C3)C2)c1ccsc1` [Example 266, (3aR,6aS)-Thiophene-3-carboxylic acid {(1R)-1-benzylsulfanylmethyl-2-[4-(hexahydro-2,5-methano-pentalene-3a-carbonyl)-6-oxo-hexahydro-pyrrolo[3,2-b]pyrrole-1-yl]-2-oxo-ethyl}-amide]: the Ki at human cathepsin B was below 5 µM.
Still for that read-out and setting: the same measure for `O=C(N[C@@H](CSCc1ccccc1)C(=O)N1CC[C@@H]2[C@H]1C(=O)CN2C(=O)c1ccc(O)cc1)c1ccsc1` [Example 267, (3aR,6aS)-Thiophene-3-carboxylic acid {(1R)-1-benzylsulfanylmethyl-2-[4-(4-hydroxy-benzoyl)-6-oxo-hexahydro-pyrrolo[3,2-b]pyrrol-1-yl]-2-oxo-ethyl}-amide]: below 5 µM; for `CS(=O)(=O)c1ccccc1C(=O)N1CC(=O)[C@@H]2[C@H]1CCN2C(=O)[C@H](CC1CCCCC1)NC(=O)C(c1ccccc1)c1ccccc1` [Example 279, (3aR,6aS)-N-{(1S)-1-Cyclohexylmethyl-2-[4-(2-methanesulfonyl-benzoyl)-6-oxo-hexahydro-pyrrolo[3,2-b]pyrrole-1-yl]-2-oxo-ethyl}-2,2-diphenyl-acetamide]: below 5 µM.
In the case of `CC(=O)N[C@@H](CC(C)C)C(=O)N1CC(=O)[C@@H]2[C@H]1CCN2C(=O)[C@H](CC1CCCCC1)NC(=O)c1ccco1` [Example 295, (3aR,6aS)-Furan-2-carboxylic acid {(1S)-2-[4-((2S)-2-acetylamino-4-methyl-pentanoyl)-6-oxo-hexahydro-pyrrolo[3,2-b]pyrrole-1-yl]-1-cyclohexylmethyl-2-oxo-ethyl}-amide], the Ki on Wild-type cruzipain, on human cathepsin L and on CPB2.8ΔCTE was below 5 µM throughout.
